We go through 30 molecules from US20230140216A1, “COMBINATION THERAPY FOR TREATING MPS1” (GAIN THERAPEUTICS SA, priority 2020, published 2023).

This assay has as its target T1, Recombinant human α-L-iduronidase protein (Homo sapiens, UniProt P35475).
T1 construct: purchased R&D
T1 sequence (P35475 28-653): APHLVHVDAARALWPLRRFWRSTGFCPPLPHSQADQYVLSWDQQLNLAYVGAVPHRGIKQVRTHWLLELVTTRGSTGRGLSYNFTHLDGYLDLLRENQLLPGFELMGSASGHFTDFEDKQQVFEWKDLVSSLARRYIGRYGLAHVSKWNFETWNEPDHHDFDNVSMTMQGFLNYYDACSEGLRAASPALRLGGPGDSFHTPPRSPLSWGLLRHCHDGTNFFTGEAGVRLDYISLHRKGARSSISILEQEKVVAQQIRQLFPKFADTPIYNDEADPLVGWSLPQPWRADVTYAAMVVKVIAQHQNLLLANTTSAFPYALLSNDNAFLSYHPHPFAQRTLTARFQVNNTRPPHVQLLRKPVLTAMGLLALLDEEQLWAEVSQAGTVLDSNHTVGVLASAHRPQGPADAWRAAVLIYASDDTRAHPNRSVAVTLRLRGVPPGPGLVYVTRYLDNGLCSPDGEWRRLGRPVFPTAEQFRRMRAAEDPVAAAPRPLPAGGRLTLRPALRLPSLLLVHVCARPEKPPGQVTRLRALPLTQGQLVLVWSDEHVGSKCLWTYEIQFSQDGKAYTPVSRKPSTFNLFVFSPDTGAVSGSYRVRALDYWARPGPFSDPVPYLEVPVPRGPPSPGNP
Nature of the assay: Differential scanning fluorimetry (DSF) thermal stabilization.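 Also: Classes count stabilization of α-L-iduronidase despite the GALC label.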 Type of assay: binding. The conditions noted are these: ΔTm class. As for the experimental part:
The capacity of Compounds of the Disclosure to stabilize α-L-iduronidase was assessed by differential scanning fluorimetry technique. The thermal denaturation of purified human native enzyme was monitored in the presence of the extrinsic fluorescent probe SYPRO Orange (Sigma-Aldrich, St. Louis, MO). The tested compounds were dissolved in 100% DMSO and diluted into the protein buffer to achieve final concentrations of 1% DMSO.
Recombinant human α-L-iduronidase protein (purchased from R&D) 12.5 µL of 1.5 µM in 100 mM Hepes 20 mM MgCl2 pH 7 (protein final concentration 0.75 µM) with Sypro Orange 10X and 12.5 µl of the different compound solutions were dispensed into 96-well PCR-plates. The intensity of SYPRO Orange fluorescence after a systematic increase of temperature was monitored in the Roche LightCycler® 480 II device (Roche Diagnostics).
The capacity to stabilize α-L-iduronidase is denoted as follows: • ΔTm GALC > 1 is shown as A; • ΔTm GALC between 0.5 and 1 is shown as B; • ΔTm GALC between 0.1 and 0.5 is shown as C; and • ΔTm GALC less than 0.1 is shown as D.
A general note: In DSF a fluorescence change marks the thermal transition of the protein.

Setting [1] is: commercially available Examples 8-37.

On to `CCCN(CC(=O)Nc1ccc(F)cc1F)Cc1nc2ccsc2c(=O)[nH]1` [Example 11, N-(2,4-difluorophenyl)-2-(((4-oxo-3,4-dihydrothieno[3,2-d]pyrimidin-2-yl)methyl)(propyl)amino)acetamide], for which, under setting [1], the “DSF Activity range” value is “B (ΔTm GALC between 0.5 and 1 is shown as B)”.

`CCN(CC(=O)Nc1ccccc1Cl)Cc1nc2ccccc2c(=O)[nH]1` [Example 22, N-(2-chlorophenyl)-2-(ethyl((4-oxo-3,4-dihydroquinazolin-2-yl)methyl)amino)acetamide]: the “DSF Activity range” value under setting [1] is “C (ΔTm GALC between 0.1 and 0.5 is shown as C)”.

Consider `CCCN(CC(=O)N1CCc2ccccc21)Cc1nc2ccsc2c(=O)[nH]1` [Example 15, 2-(((2-(indolin-1-yl)-2-oxoethyl)(propyl)amino)methyl)thieno[3,2-d]pyrimidin-4(3H)-one], for which the “DSF Activity range” value under setting [1] is given as “D (ΔTm GALC less than 0.1 is shown as D)”.

With `CCCN(CC(=O)N(C)c1ccccc1Cl)Cc1nc2cc(C)ccc2c(=O)[nH]1` [Example 85], for the setting “synthetized Examples 38-94”, the “DSF Activity range” value was “B (ΔTm GALC between 0.5 and 1 is shown as B)”.

Take `Cc1ccc2c(=O)[nH]c(CN(C)CC(=O)N3CCc4ccccc43)nc2c1` [Example 86]: under “synthetized Examples 38-94”, the “DSF Activity range” value is “D (ΔTm GALC less than 0.1 is shown as D)”.

On to `CCN(CC(=O)N(C)c1ccccc1Cl)Cc1nc2cc(F)ccc2c(=O)[nH]1.Cl` [Example 64], for which the “DSF Activity range” value (synthetized Examples 38-94) is “B (ΔTm GALC between 0.5 and 1 is shown as B)”.

On to `CCN(CC(=O)Nc1ccccc1C)Cc1nc2ccccc2c(=O)[nH]1` [Example 20, 2-(ethyl((4-oxo-3,4-dihydroquinazolin-2-yl)methyl)amino)-N-(o-tolyl)acetamide], for which, under setting [1], the “DSF Activity range” value was “B (ΔTm GALC between 0.5 and 1 is shown as B)”.

As for `CCCN(CC(=O)N(C)c1ccccc1Cl)Cc1nc2c(C)csc2c(=O)[nH]1` [Example 44], the “DSF Activity range” value (synthetized Examples 38-94) is “B (ΔTm GALC between 0.5 and 1 is shown as B)”.

In the case of `Cc1cccc(C)c1NC(=O)CN(C)Cc1nc2ccccc2c(=O)[nH]1` [Example 23, N-(2,6-dimethylphenyl)-2-(methyl((4-oxo-3,4-dihydroquinazolin-2-yl)methyl)amino)acetamide], the “DSF Activity range” value under setting [1] is “B (ΔTm GALC between 0.5 and 1 is shown as B)”.

Regarding `CCN(CC(=O)N(C)c1ccccc1Cl)Cc1nc2ccc(F)cc2c(=O)[nH]1` [Example 60], the “DSF Activity range” value (synthetized Examples 38-94) is “B (ΔTm GALC between 0.5 and 1 is shown as B)”.

As to `Cc1ccc2nc(CN(C)CC(=O)N3CCc4ccccc43)[nH]c(=O)c2c1` [Example 81], the “DSF Activity range” value (synthetized Examples 38-94) is “C (ΔTm GALC between 0.1 and 0.5 is shown as C)”.

Regarding `CN(CC(=O)N(C)c1cccc(F)c1)Cc1nc2ccc(F)cc2c(=O)[nH]1` [Example 74], the “DSF Activity range” value (synthetized Examples 38-94) is “B (ΔTm GALC between 0.5 and 1 is shown as B)”.

With `Cc1ccc2nc(CN(C)CC(=O)N(C)c3ccc(Cl)c(Cl)c3)[nH]c(=O)c2c1` [Example 89, 2-(N-((3,4-dihydro-6-methyl-4-oxoquinazolin-2-yl)methyl)-N-methylamino)-N-(3,4-dichlorophenyl)-N-methylacetamide], the “DSF Activity range” value (synthetized Examples 38-94) is “B (ΔTm GALC between 0.5 and 1 is shown as B)”.

Take `Cc1csc(N(C)C(=O)CN(C)Cc2nc3c(C)csc3c(=O)[nH]2)n1` [Example 48, N-methyl-2-(methyl((7-methyl-4-oxo-3,4-dihydrothieno[3,2-d]pyrimidin-2-yl)methyl)amino)-N-(4-methylthiazol-2-yl)acetamide]: the “DSF Activity range” value (synthetized Examples 38-94) was “C (ΔTm GALC between 0.1 and 0.5 is shown as C)”.

`CCN(CC(=O)NC(C)(C)C)Cc1nc2ccsc2c(=O)[nH]1` [Example 13, N-(tert-butyl)-2-(ethyl((4-oxo-3,4-dihydrothieno[3,2-d]pyrimidin-2-yl)methyl)amino)acetamide]: under setting [1], the “DSF Activity range” value is reported as “D (ΔTm GALC less than 0.1 is shown as D)”.

In the case of `CCN(CC(=O)N(C)c1c(Cl)cccc1Cl)Cc1nc2cc(F)ccc2c(=O)[nH]1` [Example 73, 2-(N-ethyl-N-((7-fluoro-3,4-dihydro-4-oxoquinazolin-2-yl)methyl)amino)-N-(2,6-dichlorophenyl)-N-methylacetamide], the “DSF Activity range” value (synthetized Examples 38-94) is “C (ΔTm GALC between 0.1 and 0.5 is shown as C)”.

With `CCN(CC(=O)N(C)c1c(Cl)cccc1Cl)Cc1nc2c(cnn2C)c(=O)[nH]1` [Example 93, 2-(N-ethyl-N-((4,5-dihydro-l-methyl-4-oxo-1H-pyrazolo[3,4-d]pylimidin-6-yl)methyl)amino)-N-(2,6-dichlorophenyl)-N-methylacetamide], the “DSF Activity range” value (synthetized Examples 38-94) is “C (ΔTm GALC between 0.1 and 0.5 is shown as C)”.

Regarding `CCN(C(=O)CN(C)Cc1nc2ccccc2c(=O)[nH]1)c1cccc2ccccc12` [Example 28, N-ethyl-2-(methyl((4-oxo-3,4-dihydroquinazolin-2-yl)methyl)amino)-N-(naphthalen-1-yl)acetamide], under setting [1], the “DSF Activity range” value is “B (ΔTm GALC between 0.5 and 1 is shown as B)”.

Regarding `O=C(Nc1ccccc1)C1CCCN1Cc1nc2ccccc2c(=O)[nH]1` (stereo not drawn) [Example 24, 1-((4-oxo-3,4-dihydroquinazolin-2-yl)methyl)-N-phenylpyrrolidine-2-carboxamide], under setting [1], the “DSF Activity range” value was “B (ΔTm GALC between 0.5 and 1 is shown as B)”.

Take `CN(CC(=O)N1Cc2ccccc2C1)Cc1nc2ccc(F)cc2c(=O)[nH]1` [Example 56, 6-fluoro-2-(((2-(isoindolin-2-yl)-2-oxoethyl)(methyl)amino)methyl)quinazolin-4(3H)-one]: the “DSF Activity range” value (synthetized Examples 38-94) is listed as “A (ΔTm GALC > 1 is shown as A)”.

For the molecule `CN(CC(=O)N1CCc2ccccc21)Cc1nc2c(cnn2C)c(=O)[nH]1` [Example 91], for the setting “synthetized Examples 38-94”, the “DSF Activity range” value is “B (ΔTm GALC between 0.5 and 1 is shown as B)”.

For the molecule `Cc1ccc(NC(=O)CN(C)Cc2nc3c(cnn3C)c(=O)[nH]2)cc1` [Example 31, 2-(methyl((1-methyl-4-oxo-4,5-dihydro-1H-pyrazolo[3,4-d]pyrimidin-6-yl)methyl)amino)-N-(p-tolyl)acetamide], the “DSF Activity range” value under setting [1] was “C (ΔTm GALC between 0.1 and 0.5 is shown as C)”.

`Cc1ccc2c(=O)[nH]c(CN(C)CC(=O)N(C)c3ccc(Cl)c(Cl)c3)nc2c1` [Example 88, 2-(N-((3,4-dihydro-7-methyl-4-oxoquinazolin-2-yl)methyl)-N-methylamino)-N-(3,4-dichlorophenyl)-N-methylacetamide]: the “DSF Activity range” value (synthetized Examples 38-94) is “B (ΔTm GALC between 0.5 and 1 is shown as B)”.

Turning to `CN(CC(=O)N(C)c1ccc(Cl)c(Cl)c1)Cc1nc2cc(F)ccc2c(=O)[nH]1` [Example 75], the “DSF Activity range” value (synthetized Examples 38-94) was “B (ΔTm GALC between 0.5 and 1 is shown as B)”.

On to `CCN(CC(=O)N(C)c1c(Cl)cccc1Cl)Cc1nc2ccc(F)cc2c(=O)[nH]1` [Example 69, 2-(N-ethyl-N-((6-fluoro-3,4-dihydro-4-oxoquinazolin-2-yl)methyl)amino)-N-(2,6-dichlorophenyl)-N-methylacetamide], for which the “DSF Activity range” value (synthetized Examples 38-94) was “C (ΔTm GALC between 0.1 and 0.5 is shown as C)”.

Regarding `CN(CC(=O)Nc1cccc2ncccc12)Cc1nc2ccccc2c(=O)[nH]1` [Example 21, 2-(methyl((4-oxo-3,4-dihydroquinazolin-2-yl)methyl)amino)-N-(quinolin-5-yl)acetamide], the “DSF Activity range” value under setting [1] is “B (ΔTm GALC between 0.5 and 1 is shown as B)”.

On to `CN(CC(=O)N(C)C1CCCCC1)Cc1nc2c(cnn2C)c(=O)[nH]1` [Example 37, N-cyclohexyl-N-methyl-2-(methyl((1-methyl-4-oxo-4,5-dihydro-1H-pyrazolo[3,4-d]pyrimidin-6-yl)methyl)amino)acetamide], for which, under setting [1], the “DSF Activity range” value was “B (ΔTm GALC between 0.5 and 1 is shown as B)”.

Turning to `Cc1csc(NC(=O)CN(C)Cc2nc3ccsc3c(=O)[nH]2)n1` [Example 14, 2-(methyl((4-oxo-3,4-dihydrothieno[3,2-d]pyrimidin-2-yl)methyl)amino)-N-(4-methylthiazol-2-yl)acetamide], the “DSF Activity range” value under setting [1] is listed as “A (ΔTm GALC > 1 is shown as A)”.

In the case of `CN(CC(=O)N(C)c1ccccc1Cl)Cc1nc(O)c2cnn(-c3ccccc3)c2n1` [Example 1, N-(2-chlorophenyl)-2-(((4-hydroxy-1-phenyl-1H-pyrazolo[3,4-d]pyrimidin-6-yl)methyl)(methyl)amino)-N-methylacetamide], the “DSF Activity range” value (synthetized Examples 1-7) is “A (ΔTm GALC > 1 is shown as A)”.

Consider `CN(CC(=O)N(C)c1ccc(Cl)c(Cl)c1)Cc1nc2ccc(F)cc2c(=O)[nH]1` [Example 58, N-(3,4-dichlorophenyl)-2-(((6-fluoro-4-oxo-3,4-dihydroquinazolin-2-yl)methyl)(methyl)amino)-N-methylacetamide], for which the “DSF Activity range” value (synthetized Examples 38-94) was “B (ΔTm GALC between 0.5 and 1 is shown as B)”.
